pKi: −log10 of the molar value. Where a name gives a salt, the structure may show the parent alone.
Columns and labels:
[1] = target: T1, nucleoside transport protein (Homo sapiens, UniProt Q99808); experiment: inhibition of the nucleoside transport protein ([3H]NBl displacement, erythrocyte membrane); format: binding; conditions: 1.5 nM [3H]NBl; for % Displacement at 10 μM: 10 μM compound; for pKi: 30 minutes at 25° C.
T1 construct: 100 μl of an aqueous suspension of erythrocyte membrane; from tissue; host or cells: erythrocyte membrane
T1 sequence (Q99808 1-456): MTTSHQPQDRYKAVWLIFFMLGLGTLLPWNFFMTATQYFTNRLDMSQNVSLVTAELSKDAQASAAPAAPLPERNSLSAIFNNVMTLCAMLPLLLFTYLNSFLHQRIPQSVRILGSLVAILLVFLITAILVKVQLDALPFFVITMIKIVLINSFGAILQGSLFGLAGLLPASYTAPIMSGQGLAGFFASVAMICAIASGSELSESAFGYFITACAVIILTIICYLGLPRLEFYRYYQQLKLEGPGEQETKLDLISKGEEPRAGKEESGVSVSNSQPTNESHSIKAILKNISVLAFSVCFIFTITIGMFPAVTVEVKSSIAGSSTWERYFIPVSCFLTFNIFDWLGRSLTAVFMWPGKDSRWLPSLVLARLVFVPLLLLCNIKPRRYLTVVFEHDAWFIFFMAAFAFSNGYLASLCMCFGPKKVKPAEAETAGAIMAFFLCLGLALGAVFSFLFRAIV
Experimental: The following test conditions were chosen for the determination of the inhibition of the nucleoside transport protein:
100 μl of the substance solution in aqueous solution with DMSO as solution aid were incubated for 30 minutes at 25° C. with 100 μl of 1.5 nM [^3H]NBl ([…]), 100 μl of buffer (50 mM Tris.HCl, pH 7.4) and 100 μl of an aqueous suspension of erythrocyte membrane. After the incubation the test mixture was filtered off (Whatman GF/C Filter, post-washed with 50 mM Tris.HCl). The filters were transferred to test tubes, 3.5 ml of scintillation fluid were added, and after 2 hours the radioactivity was measured in a β-counter.

[2] = tested on: (+)-MK801 binding site of the ionotropic NMDA receptor; experiment: (3H)-(+)-MK801 receptor binding test on rat brain membrane homogenate; conditions: 10 μmole/l compound, 1 nmole/l (3H)-(+)-MK801, mean values of double determinations
Experimental: The investigations to determine the NMDA antagonistic action of the compounds according to the invention were carried out on brain membrane homogenates (rat brain homogenate minus cerebellum, pons and medulla oblongata from male Wistar strain rats (Charles River, Sulzfeld, Germany)).
For this, freshly prepared rat brains were digested, after removal of the cerebellum, pons and medulla oblongata, in 50 mmole/l Tris/HCl (pH 7.7) in a Polytron homogeniser (model PT3000, Kinematika AG, Littau, Switzerland) at 6,000 revs. per minute (rpm) for 1 minute while cooling in ice and then centrifuged for 15 minutes at 4° C. and 60,000 g. The supernatant was decanted and discarded, and the membrane pellet was taken up again in 50 mmole/l of Tris/HCl (pH 7.7) and digested in a homogeniser at 2,000 rpm for 1 minute and recentrifuged for 15 minutes at 4° C. and 60,000 g. The supernatant was discarded again and the membrane pellet was homogenised in 50 mmole/l Tris/HCl (pH 7.7) (2,000 rpm for 1 minute) and aliquot portions were frozen at −70° C.
For the receptor binding test aliquots were in each case thawed out and then centrifuged for 15 minutes at 4° C. and 60,000 g. After decanting and discarding the supernatant, the membrane pellet for the binding test was taken up in binding test buffer and homogenised (2,000 rpm for 1 minute). 5 mmole/l Tris/HCl (pH 7.7) supplemented with 30 μmole/l of glycine and 100 μmole/l of glutamic acid was used as binding test buffer.
1 nmole/l of (^3H)-(+)-MK801 ((5R, 10S)-(+)-5-methyl-10,11-dihydro-5H-dibenzo(a,d)cyclohepten-5,10-imine (NET-972, NEN, Cologne, Germany) was added as radioactively labelled ligand. The proportion of non-specific binding was determined in the presence of 10 μmole/l of non-radioactively labelled (+)-MK801 (RBI/Sigma, Deisenhofen, Germany). In further assays the respective compounds according to the invention were added in concentration series and the displacement of the radioactive ligand from its specific binding to the NMDA receptor was measured.
The batches were incubated in each case for 40 minutes at 25° C. and then harvested by filtration to determine the radioactive ligand bound to the brain membrane homogenate. The radioactivity retained by the filter was measured after adding a scintillator (“Ready Protein” scintillator, Beckmann Coulter GmbH, Krefeld, Germany) in a β-counter (Packard TR^1-CARB Liquid Scintillation Analyser 2000CA, Packard Instrument, Meriden, Conn. 06450, USA).
The resulting percentage inhibition of the specific binding of the ligand (^3H)-(+)-MK801 in the presence of in each case 10 μmole/l of the respective compound according to the invention serves as a measure of the affinity of this compound for the (+)-MK801 binding site of the ionotropic NMDA receptor. The affinities are given in Table 2 as mean values of double determinations on selected examples.

[3] = target: T2, recombinant human adenosine A3 receptor (Homo sapiens, UniProt P0DMS8); experiment: adenosine A3 receptor displacement assay with [125I]AB-MECA; format: binding; conditions: compound concentration 3 μM; ligand 0.1 nM [125I]AB-MECA
T2 construct: expressed in transfected cells
T2 sequence (P0DMS8 1-318): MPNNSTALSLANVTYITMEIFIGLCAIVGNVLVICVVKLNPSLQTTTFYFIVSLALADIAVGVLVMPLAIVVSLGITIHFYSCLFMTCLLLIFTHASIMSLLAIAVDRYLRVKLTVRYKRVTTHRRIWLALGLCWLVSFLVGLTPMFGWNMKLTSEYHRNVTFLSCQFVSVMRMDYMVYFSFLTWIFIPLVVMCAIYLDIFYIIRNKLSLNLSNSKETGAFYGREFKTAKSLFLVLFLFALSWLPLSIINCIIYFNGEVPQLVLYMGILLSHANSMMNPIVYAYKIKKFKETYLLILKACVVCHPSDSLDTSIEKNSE
Experimental: The dihydrochloride of Example 147 (prepared from Example 147 in a similar manner to Examples 145 and 152) was investigated as regards its affinity for the recombinant human adenosine A3 receptor in a displacement assay (C. A. Salvatore et al., Process. Natl. Acad. Sci. USA (1993), Vol. 90, 10365–10369). At a ligand concentration of 0.1 nM [^125I]AB-MECA (N^6-(4-amino-3-[^125I]iodobenzyladenosine) the displacement at a concentration of 3 μM was 93%.

| SMILES | pKi [1] | % Inhibition of the specific binding of the ligand (3H)-(+)-MK801 [2] [%] | other results |
| --- | --- | --- | --- |
| COc1ccc(C2CC(c3ccc([N+](=O)[O-])o3)Nc3c(Br)c(-c4ccccc4)nn32)cc1OC (stereo not shown) [Example 39, 3-bromo-7-(3,4-dimethoxyphenyl)-5-(5-nitrofuran-2-yl)-2-phenyl-tetrahydropyrazolo[1,5-a]pyrimidine] |  |  | % Displacement at 10 μM [1]: 40% |
| COc1ccc(C2CC(c3ccc([N+](=O)[O-])s3)Nc3c(N=Nc4ccccc4)c(O)nn32)cc1OC (stereo not shown) [Example 53, 7-(3,4-dimethoxyphenyl)-5-(5-nitrothiophen-2-yl)-3-phenylazotetrahydropyrazolo[1,5-a]pyrimidin-2-ol] | 6.22 |  |  |
| COc1ccc(C2CC(c3ccc([N+](=O)[O-])s3)Nc3c(Br)c(-c4ccccc4)nn32)cc1OC (stereo not shown) [Example 54, 3-bromo-7-(3,4-dimethoxyphenyl)-5-(5-nitrothiophen-2-yl)-2-phenyltetrahydropyrazolo[1,5-a]pyrimidine] | 5.89 |  |  |
| COc1ccc(C2CC(c3ccc([N+](=O)[O-])s3)Nc3c(C#N)c(SC)nn32)cc1OC (stereo not shown) [Example 55, 7-(3,4-dimethoxyphenyl)-2-methylsulfanyl-5-(5-nitrothiophen-2-yl)-tetrahydropyrazolo[1,5-a]pyrimidine-3-carbonitrile] | 6.40 |  |  |
| COc1ccc(C2CC(c3ccc([N+](=O)[O-])s3)Nc3c(C#N)cnn32)cc1OC (stereo not shown) [Example 56, 7-(3,4-dimethoxyphenyl)-5-(5-nitrothiophen-2-yl)-tetrahydropyrazolo[1,5-a]pyrimidine-3-carbonitrile] |  |  | % Displacement at 10 μM [1]: 43% |
| COc1ccc(C2CC(C(=O)c3ccccc3)Nc3c(C#N)c(SC)nn32)cc1OC (stereo not shown) [Example 64, 5-benzoyl-7-(3,4-dimethoxyphenyl)-2-methylsulfanyltetrahydropyrazolo[1,5-a]pyrimidine-3-carbonitrile] | 6.22 |  |  |
| COc1ccc(C2CC(CCc3ccccc3)Nc3c(C#N)c(SC)nn32)cc1OC (stereo not shown) [Example 111, 7-(3,4-dimethoxyphenyl)-2-methylsulfanyl-5-phenethyl-tetrahydropyrazolo[1,5-a]pyrimidine-3-carbonitrile] | 6.52 |  |  |
| COc1ccc(C2CC(c3ccc([N+](=O)[O-])o3)Nc3c(C#N)c(SC)nn32)cc1OC (stereo not shown) [Example 153, 7-(3,4-dimethoxyphenyl)-2-methylsulfanyl-5-(5-nitrofuran-2-yl) tetrahydropyrazolo[1,5-a]pyrimidine-3-carbonitrile] |  |  | % Displacement at 10 μM [1]: 50% |
| CCOC(=O)c1cnn2c1NC(c1ccccn1)CC2c1ccc(OC)c(OC)c1 (stereo not shown) [Example 154, 7-(3,4-dimethoxyphenyl)-5-pyridin-2-yl-4,5,6,7-tetrahydropyrazolo[1,5-a]pyrimidine-3-carboxylic acid ethyl ester] |  |  | % Displacement at 10 μM [1]: 41% |
| COc1ccc(C2CC(c3ccccn3)Nc3c(Br)c(-c4ccccc4)nn32)cc1OC (stereo not shown) [dihydrochloride of Example 147, 3-bromo-7-(3,4-dimethoxyphenyl)-2-phenyl-5-pyridin-2-yl-tetrahydropyrazolo[1,5-a]pyrimidine] |  |  | displacement [3]: 93% |

Further lines, with some results ahead:

| pKi [1] | % Inhibition of the specific binding of the ligand (3H)-(+)-MK801 [2] [%] | SMILES | other results |
| --- | --- | --- | --- |
|  | 44 | OC1=NN2C(=NC(c3ccccn3)CC2c2ccccc2)C1N=Nc1ccccc1 (stereo not shown) [Example 140, 7-phenyl-3-phenylazo-5-pyridin-2-yl-3,5,6,7-tetrahydropyrazolo[1,5-a]pyrimidin-2-ol] |  |
|  | 45 | CCOC(=O)C1C=NN2C1=NC(c1ccccn1)CC2Sc1ccccc1 (stereo not shown) [Example 141, 7-phenylsulfanyl-5-pyridin-2-yl-3,5,6,7-tetrahydropyrazolo[1,5-a]pyrimidine-3-carboxylic acid ethyl ester] |  |
|  | 75 | OC1=NN2C(=NC(c3ccccn3)CC2Sc2ccccc2)C1N=Nc1ccccc1 (stereo not shown) [Example 142, 3-phenylazo-7-phenylsulfanyl-5-pyridin-2-yl-3,5,6,7-tetrahydropyrazolo[1,5-a]pyrimidin-2-ol] |  |
|  | 49 | BrC1C=NN2C1=NC(c1ccccn1)CC2Sc1ccccc1 (stereo not shown) [Example 143, 3-bromo-7-phenylsulfanyl-5-pyridin-2-yl-3,5,6,7-tetrahydropyrazolo[1,5-a]pyrimidine] |  |
|  | 45 | N#CC1C=NN2C1=NC(c1ccccn1)CC2Sc1ccccc1 (stereo not shown) [Example 144, 7-phenylsulfanyl-5-pyridin-2-yl-3,5,6,7-tetrahydropyrazolo[1,5-a]pyrimidine-3-carbonitrile] |  |
| 6.40 |  | COc1ccc(C2CC(c3ccccn3)Nc3c(Br)c(-c4ccccc4)nn32)cc1OC (stereo not shown) [Example 145, 3-bromo-7-(3,4-dimethoxyphenyl)-2-phenyl-5-pyridin-2-yl-4,5,6,7-tetrahydropyrazolo[1,5-a]pyrimidine dihydrochloride] |  |

Reference: patent US7135568B2, “Substituted pyrazolopyrimidines and thiazolopyrimidines” (Gruenenthal GmbH, priority 2001, dated 2006)
